These are literature values, as cited in US9084838B2, “Feminine care absorbent article for use in warm climates” (Kimberly-Clark Worldwide, Inc., priority 2011, dated 2015).

The conditions of this data set: at 25° C.

Take `O=C(O)CC(O)(CC(=O)O)C(=O)O` [citric acid]: the pKa2 is on record as 4.76 and the pKa3 is reported as 6.40.
